Experimental data: patent US20030124150A1, “Kit for reducing aching” (priority 2001, published 2003)
Each block holds one compound with its values, some of them ahead of it.

Columns and labels:
subjects [1] = experiment: Aching as side effect of multiple dosing of PDE5 inhibitors (background observations); settings: for aching as a side effect of multiple dosing: in vivo
Text: A problem associated with the multiple daily dosing of PDE5 inhibitors is that subjects experience, as a side effect, aching in certain parts of the body. Subjects describe this aching as predominantly a dull aching without muscle tenderness. Aching is experienced predominantly in the“postural muscles”, typically the calves, thighs, buttocks, lower back, shoulders and neck regions. These symptoms may be described as myalgia or back pain; for the purposes of this application, they will be referred to as“aching”.

subjects [2] = experiment: Study 2: Compound A multiple dosing, non-escalating (Example 3) vs escalating (Example 4), myalgia/back pain (aching); type: in vivo; settings: for Myalgia/back pain, Mild/moderate / Myalgia/back pain, Severe: subjects affected/dosed
Description: (§1) All adverse events observed or recorded during the studies were recorded by the investigator, including information about concomitant illnesses and therapeutic interventions. For all adverse events, the investigator pursued and obtained information adequate to determine the outcome of the adverse event. Physical examinations at screening and medical histories of all subjects were normal with no indication of any joint, muscle, or tendon weakness.
Six subjects were given 20 mg of Compound A three times a day (tid) for 7 days. Dosage took the form of immediate release tablets.
Nine subjects were given 2.5 mg of Compound A three times a day (tid) for 7 days, then 7.5 mg tid for 7 days, then 20 mg tid for a further 7 days. Dosage took the form of immediate release tablets.

subjects [3] = experiment: Study 3: Compound A escalating dosing with 24-hour drug holiday (Examples 6 and 7), myalgia and back pain (aching); type: in vivo; settings: for Back pain, Mild / Back pain, Moderate / Back pain, Severe / Myalgia, Mild / Myalgia, Moderate / Myalgia, Severe: 20 mg tid 7 days, 24-hour drug holiday, 20 mg tid 6 days, subjects affected/dosed
Description: as §1
(§2) Nine subjects were given 2.5 mg of Compound A three times a day (tid) for 7 days followed by 20 mg tid for a further 7 days. The subjects were given a 24-hour drug holiday, i.e. a day without taking the inhibitor, then 20 mg tid dosing was continued for another 6 days. Dosage took the form of immediate release tablets.
as §2, with “4 days, then 7.5 mg tid for 3 days, then” for “7 days followed by”

subjects [4] = settings: reported by H Padma-Nathan et al and Eli Lilly/ICOS presentation; cited from earlier work
subjects [5] = experiment: Study 1: double blind, placebo-controlled, multiple dose study of sildenafil, adverse events (myalgia, back pain); type: in vivo; settings: for Back pain / Myalgia: oral capsules, subjects affected/subjects dosed
Description: as §1
Dosage took the form of oral capsules.

[6] = Example 3: 20 mg tid for 7 days, immediate release tablets
[7] = Example 4: 2.5 mg tid 7 days, then 7.5 mg tid 7 days, then 20 mg tid 7 days
[8] = Example 4 escalating dosing regime
[9] = Example 6 escalating dosing regime
[10] = Example 7: 2.5 mg tid 4 days, 7.5 mg tid 3 days
[11] = Example 7 escalating dosing regime

Structure (SMILES): CCCOc1ccc(S(=O)(=O)N2CCN(CC)CC2)cc1-c1nc2c(CC)n(Cc3ccccn3)nc2c(=O)[nH]1 [WO 98/49166, Example 4, 3-ethyl-5-[5-(4-ethylpiperazin-1-ylsulphonyl)-2-n-propoxyphenyl]-2-(pyridin-2-yl)methyl-2,6-dihydro-7H-pyrazolo[4,3-d]pyrimidin-7-one]
aching as a side effect of multiple dosing (subjects [1]): observed

Myalgia/back pain, Mild/moderate (subjects [2]; [6]): 0/6
Myalgia/back pain, Severe (subjects [2]; [6]): 6/6
subjects withdrawn due to the severity of the aching (subjects [2]; Example 3: 20 mg tid, after only 4 days of treatment, six subjects): four
Myalgia/back pain, Mild/moderate (subjects [2]; [7]): 1/9
Myalgia/back pain, Severe (subjects [2]; [7]): 1/9
aching compared with non-escalating regime of Example 3 (subjects [2]; [8]): significant reduction in aching
withdrawals (subjects [2]; [8]): no withdrawals
Back pain, Mild (subjects [3]; Example 6: 2.5 mg tid 7 days): 2/9
Back pain, Moderate (subjects [3]; Example 6: 2.5 mg tid 7 days): 0/9
Back pain, Severe (subjects [3]; Example 6: 2.5 mg tid 7 days): 0/9
Myalgia, Mild (subjects [3]; Example 6: 2.5 mg tid 7 days): 2/9
Myalgia, Moderate (subjects [3]; Example 6: 2.5 mg tid 7 days): 3/9
Myalgia, Severe (subjects [3]; Example 6: 2.5 mg tid 7 days): 1/9
aching compared with non-escalating regime of Example 3 (subjects [3]; [9]): significant reduction in aching
withdrawals (subjects [3]; [9]): no withdrawals
Back pain, Mild (subjects [3]; [10]): 0/9
Back pain, Moderate (subjects [3]; [10]): 0/9
Back pain, Severe (subjects [3]; [10]): 0/9
Myalgia, Mild (subjects [3]; [10]): 4/9
Myalgia, Moderate (subjects [3]; [10]): 1/9
Myalgia, Severe (subjects [3]; [10]): 0/9
aching compared with non-escalating regime of Example 3 (subjects [3]; [11]): significant reduction in aching
withdrawals (subjects [3]; [11]): no withdrawals
Structure (SMILES): CCCc1nn(C)c2c(=O)[nH]c(-c3cc(C(=O)CN4CCOCC4)ccc3OCC)nc12 [Compound A, 5-(2-ethoxy-5-morpholinoacetylphenyl)-1-methyl-3-n-propyl-1,6-dihydro-7H-pyrazolo[4,3-d]pyrimidin-7-one]
incidence of aching after the 24-hour drug-free period (subjects [3]; Example 6, 20 mg tid resumed): no apparent increase
effectiveness of triple dosing in reducing aching (subjects [3]; Example 7 (triple dosing)): particularly effective in reducing aching
incidence of aching after the 24-hour drug-free period (subjects [3]; Example 7, 20 mg tid resumed): no apparent increase

Structure (SMILES): CCc1c2nc(-c3cc(S(=O)(=O)N4CCN(CC)CC4)cnc3OCCOC)[nH]c(=O)c2nn1Cc1ccccn1 [WO 99/54333, Example 4, 3-ethyl-5-[5-(4-ethylpiperazin-1-ylsulphonyl)-2-(2-methoxyethoxy)pyridin-3-yl]-2-(pyridin-2-yl)methyl-2,6-dihydro-7H-pyrazolo[4,3-d]-pyrimidin-7-one]
aching as a side effect of multiple dosing (subjects [1]): observed

Structure (SMILES): CN1CC(=O)N2[C@H](c3ccc4c(c3)OCO4)c3[nH]c4ccccc4c3C[C@@H]2C1=O [tadalafil, (6R, 12aR)-2,3,6,7,12,12a-hexahydro-2-methyl-6-(3,4-methylenedioxyphenyl)-pyrazino[2′,1′:6,1]pyrido[3,4-b]indole-1,4-dione]
backache and myalgia (subjects [4]): reported to cause backache and myalgia

Structure (SMILES): CCCc1nn(C)c2c(=O)[nH]c(-c3cc(S(=O)(=O)N4CCN(C)CC4)ccc3OCC)nc12 [sildenafil, 5-[2-ethoxy-5-(4-methyl-1-piperazinylsulphonyl)phenyl]-1-methyl-3-n-propyl-1,6-dihydro-7H-pyrazolo[4,3-d]pyrimidin-7-one]
Back pain (subjects [5]; 25 mg tid): 2/10
Myalgia (subjects [5]; 25 mg tid): 2/10
Back pain (subjects [5]; 50 mg tid): 2/9
Myalgia (subjects [5]; 50 mg tid): 5/9
reports of severe treatment-related adverse events which led to discontinuance of the treatment (subjects [5]; 75 mg tid): three
Back pain (subjects [5]; 75 mg tid): 5/8
Myalgia (subjects [5]; 75 mg tid): 3/8
most common adverse events (subjects [5]; 25, 50 or 75 mg tid): back pain, headache and myalgia
persistence of headache and myalgia that occurred after a few days of treatment (subjects [5]; lower doses (25 mg tid and 50 mg tid)): did not persist with further treatment
incidence of aching (subjects [1]; 25 mg tid): 60%
incidence of aching (subjects [1]; 75 mg tid): 100%
day by which aching disappears (subjects [1]; higher doses (for example, 75 mg tid)): sixth or seventh day
day on which aching generally commences (subjects [1]; multiple dosing regime): second or third day
